# From ChEMBL document CHEMBL5096176, “AAA ATPases as therapeutic targets: Structure, functions, and small-molecule inhibitors” (Eur J Med Chem, 2021)
# What was measured:
# Spastin [1] = molecular target: T1, Spastin (Drosophila melanogaster, UniProt Q8I0P1); assay: Inhibition of wild-type Drosophila melanogaster Spastin (209 to 758 residues) in presence of ATP by NADH-coupled fluorescence assay
# T1 sequence (Q8I0P1 whole entry): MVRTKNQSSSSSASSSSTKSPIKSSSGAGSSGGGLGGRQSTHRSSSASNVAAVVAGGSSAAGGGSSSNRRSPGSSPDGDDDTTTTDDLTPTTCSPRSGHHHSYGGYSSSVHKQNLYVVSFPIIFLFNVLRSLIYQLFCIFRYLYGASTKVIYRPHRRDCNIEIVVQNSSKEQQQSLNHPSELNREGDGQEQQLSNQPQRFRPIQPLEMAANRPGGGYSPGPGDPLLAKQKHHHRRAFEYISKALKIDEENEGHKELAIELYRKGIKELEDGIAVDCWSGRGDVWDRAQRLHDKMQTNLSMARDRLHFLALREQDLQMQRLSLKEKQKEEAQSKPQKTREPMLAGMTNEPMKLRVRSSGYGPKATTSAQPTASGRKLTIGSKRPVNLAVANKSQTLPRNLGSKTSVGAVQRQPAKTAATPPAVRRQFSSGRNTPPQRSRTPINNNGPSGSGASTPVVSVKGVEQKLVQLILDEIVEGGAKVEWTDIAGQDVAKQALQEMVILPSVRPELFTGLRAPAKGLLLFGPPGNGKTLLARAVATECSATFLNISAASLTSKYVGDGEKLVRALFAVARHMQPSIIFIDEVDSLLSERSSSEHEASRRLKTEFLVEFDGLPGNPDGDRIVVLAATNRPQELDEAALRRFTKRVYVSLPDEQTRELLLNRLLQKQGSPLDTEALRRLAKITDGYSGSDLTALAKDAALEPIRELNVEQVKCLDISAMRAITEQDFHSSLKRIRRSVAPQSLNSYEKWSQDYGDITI
# [2] = Inhibition of Drosophila melanogaster Spastin N527C mutant (209 to 758 residues) in presence of ATP by NADH-coupled fluorescence assay
# [3] = Selectivity index, ratio of CC50 for MDCK cells to EC50 for Oseltamivir-resisitant Influenza A virus (A/North Carolina/39/2009 (H1N1)) infected in MDCK cells; type: toxicity, cell-based; conditions: dog, read-out: Ratio CC50/EC50
# Cytomegalovirus = assay: Antiviral activity against human Cytomegalovirus infected in human fibroblast cells assessed as viral growth inhibition preincubated for 24 hrs with compound followed by viral infection by plaque assay; type: functional, organism-based; conditions: Human betaherpesvirus 5, Fibroblast
# Influenza A virus [4] = assay: Antiviral activity against Influenza A virus (A/Texas/04/2009 (H1N1)) infected in MDCK cells over expressing ST6Gal I assessed as inhibition of viral replication by plaque assay; type: functional, organism-based
# Influenza A virus [5] = assay: Antiviral activity against Influenza A virus (A/Denmark/528/2009 (H1N1)) infected in MDCK cells over expressing ST6Gal I assessed as inhibition of viral replication by plaque assay; type: functional, organism-based
# [6] = Selectivity index, ratio of CC50 for MDCK cells to EC50 for Influenza A virus (A/Texas/04/2009 (H1N1)) infected in MDCK cells; type: toxicity, cell-based; conditions: dog, read-out: Ratio CC50/EC50
# [7] = Selectivity index, ratio of CC50 for MDCK cells to EC50 for Influenza A virus (A/Denmark/528/2009 (H1N1)) infected in MDCK cells; type: toxicity, cell-based; conditions: dog, read-out: Ratio CC50/EC50
# [8] = molecular target: T2, Transitional endoplasmic reticulum ATPase (Homo sapiens, UniProt P55072); assay: Inhibition of p97 (unknown origin) incubated for 15 mins in presence of ATP by ADP Glo assay
# T2 sequence (P55072 whole entry): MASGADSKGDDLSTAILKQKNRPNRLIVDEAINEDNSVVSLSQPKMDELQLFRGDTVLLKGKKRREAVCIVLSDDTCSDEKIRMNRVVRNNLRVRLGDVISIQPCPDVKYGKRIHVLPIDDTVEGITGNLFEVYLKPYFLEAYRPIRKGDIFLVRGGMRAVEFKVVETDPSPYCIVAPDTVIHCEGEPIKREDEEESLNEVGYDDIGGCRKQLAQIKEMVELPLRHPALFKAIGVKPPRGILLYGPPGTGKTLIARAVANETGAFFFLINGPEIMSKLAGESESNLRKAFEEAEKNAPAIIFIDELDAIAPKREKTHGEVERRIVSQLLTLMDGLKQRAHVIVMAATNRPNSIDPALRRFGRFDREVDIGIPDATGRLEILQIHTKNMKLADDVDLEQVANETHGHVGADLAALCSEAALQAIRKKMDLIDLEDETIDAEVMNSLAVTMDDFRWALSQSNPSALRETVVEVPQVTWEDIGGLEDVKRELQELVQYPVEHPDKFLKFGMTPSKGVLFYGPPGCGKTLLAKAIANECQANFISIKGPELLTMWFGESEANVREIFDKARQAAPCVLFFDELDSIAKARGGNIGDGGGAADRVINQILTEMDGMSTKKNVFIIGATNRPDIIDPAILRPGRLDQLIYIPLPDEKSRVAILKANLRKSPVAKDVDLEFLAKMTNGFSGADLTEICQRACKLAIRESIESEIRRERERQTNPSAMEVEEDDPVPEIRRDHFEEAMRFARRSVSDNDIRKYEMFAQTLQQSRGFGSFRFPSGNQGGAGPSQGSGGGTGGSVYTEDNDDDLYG
# [9] = tested on: Schizosaccharomyces pombe; assay: Antifungal activity against Schizosaccharomyces pombe assessed as fungal growth inhibition incubated for 18 hrs by absorbance based assay; type: functional
# [10] = molecular target: T2, Transitional endoplasmic reticulum ATPase; assay: Inhibition of p97 (unknown origin) in presence of ATP by Biomol Green Reagent based assay
# Huh-7 = assay: Anticancer activity against human Huh-7 cells assessed as inhibition of cell proliferation incubated for 4 days by MTS assay; type: functional, cell-based; conditions: Huh-7, 96 h
# Hep 3B2 = assay: Anticancer activity against human Hep3B cells assessed as inhibition of cell proliferation incubated for 4 days by MTS assay; type: functional, cell-based; conditions: 96 h
# Spastin [11] = molecular target: T3, Spastin (Homo sapiens, UniProt Q9UBP0); assay: Inhibition of human Spastin in presence of ATP
# T3 sequence (Q9UBP0 whole entry): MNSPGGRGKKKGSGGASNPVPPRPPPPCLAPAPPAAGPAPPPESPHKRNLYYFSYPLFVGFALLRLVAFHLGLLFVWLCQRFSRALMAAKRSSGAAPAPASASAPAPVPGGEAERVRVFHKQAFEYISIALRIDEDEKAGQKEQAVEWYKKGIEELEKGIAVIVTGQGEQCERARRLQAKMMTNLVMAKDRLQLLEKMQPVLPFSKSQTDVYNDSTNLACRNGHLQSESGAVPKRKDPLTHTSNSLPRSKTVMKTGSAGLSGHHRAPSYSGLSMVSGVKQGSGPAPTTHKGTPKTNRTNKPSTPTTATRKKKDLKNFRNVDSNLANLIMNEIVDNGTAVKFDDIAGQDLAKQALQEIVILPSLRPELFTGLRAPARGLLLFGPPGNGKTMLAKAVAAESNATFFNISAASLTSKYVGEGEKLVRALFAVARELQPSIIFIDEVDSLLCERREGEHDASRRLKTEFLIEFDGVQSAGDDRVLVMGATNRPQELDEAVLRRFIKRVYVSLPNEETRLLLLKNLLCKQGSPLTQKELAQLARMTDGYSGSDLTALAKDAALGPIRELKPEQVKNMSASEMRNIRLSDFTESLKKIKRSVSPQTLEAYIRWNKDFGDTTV
# HeLa = assay: Anticancer activity against human HeLa cells assessed as cell growth inhibition; type: functional, cell-based
smiles,measurement,setting,value
C[C@@H]1CNCCN1c1nc(Nc2cc(C(C)(C)C)[nH]n2)c2cccc(F)c2n1,IC50,Spastin [1],4840 nM
same,IC50,[2],230 nM
Cc1cc(OCc2nnc(SC3CCCC3)n2-c2cccnc2)ccc1-c1ccc(S(C)(=O)=O)cc1,selectivity ratio,[3],50
same,IC50,Cytomegalovirus,130 nM
same,EC50,Influenza A virus [4],30 nM
same,EC50,Influenza A virus [5],30 nM
same,selectivity ratio,[6],50
same,selectivity ratio,[7],50
Nc1nc(O)c2ncn(COC(CO)CO)c2n1 [GANCICLOVIR],IC50,[8],1300 nM
C=C(C)CSc1nnc2c(n1)[nH]c1ccccc12,GI50,[9],136 nM
Cc1cc(OCc2cnc(SC3CCCC3)n2-c2cccnc2)ccc1C#CCCNC(C)C,IC50,[10],7 nM
C=C(C)CSc1nnc2c(n1)[nH]c1cc(Br)ccc12,GI50,[9],14 nM
CC(=O)c1c(O)c(C)c(O)c(Cc2c(O)c3c(c(C(=O)/C=C/c4ccccc4)c2O)OC(C)(C)C=C3)c1O [ROTTLERIN],IC50,Huh-7,570 nM
same,IC50,Hep 3B2,250 nM
C[C@@H]1CNCCN1c1nc(Nc2cc(C(C)(C)C)[nH]n2)c2ccccc2n1,IC50,Spastin [11],4400 nM
O=c1[nH]c2ccccc2n1C1CCN(Cc2ccc(-c3nc4cc5[nH]cnc5cc4nc3-c3ccccc3)cc2)CC1,IC50,Huh-7,4000 nM
same,IC50,Hep 3B2,3500 nM
CC(C)[C@@H]1CN(c2nc(Nc3cc(C(C)(C)C)[nH]n3)c3cc[nH]c3n2)CCN1,IC50,Spastin [11],99 nM
O=C(CCl)Nc1cccc(NC2=NS(=O)(=O)c3ccccc32)c1,IC50,HeLa,3000 nM
